Read-outs that look alike come from different tables or passages of the source.

Series [1] is described as follows: Toxicity of formulations on mammalian cell lines (cell viability, Coulter). The series is classed as cell-based, murine. How it is done: (§1) Cell Lines: A20: B-cell tumor cell line 9C127: T-cell hybridoma cell line LB/62287: B-cell lymphoma cell line P388.D1: Macrophage tumor cell line
(§2) Cell lines (1×10^5 /well; >85% viability) are cultured in 24 well flat bottom plates in RPMI® medium (Gibco Laboratories, Grand Island, N.Y.) supplemented with 10% fetal calf serum, streptomycin (100 μg/mL) and penicillin (100 U/mL). Cultures are incubated (37° C., 10% CO2) with the following concentrations of vehicles:
(§3) c) 1.0%, 0.1% or 0.01% Triacetin or IMWITOR®
(§4) After a 72 hour or 6 hour incubation period, cells are harvested and counted by the Coulter Counter (Northwell Drive, England). Cell viability is determined using a Coulter Channelyzer.
(§5) The relative toxicity of the sample formulations to estimate the relative degree of toxicity for in vivo administration is carried out in vitro with the mammalian cell lines. Various concentrations of the vehicles are incubated for either 6 or 24 hours with the different mammalian cell lines. Immediate toxicity is evaluated at 6 hours by quantitating the number of dead cells in treated wells as compared to the untreated controls. Long term toxicity effects as well as effects which may inhibit cell growth are evaluated by measuring the relative degree of proliferation after an additional 48 hours incubation with ^3 H-thymidine.

In series [2] the test system is A20 (B-cell tumor cell line). Described as above. The series is classed as cell-based, murine. As to the method:
as §1, §2, §3, §4, §5

The nature of another series: in vitro. In kind it is cell-based, murine. Conditions: mouse, p388.d1 cells, Relative Toxicity at 6 Hours. How it is done: as §1, §2, §3, §4, §5
The subject of series [3] is LB/62287 (B-cell lymphoma cell line). Put plainly: Toxicity of formulations on mammalian cell lines (cell viability, Coulter). The series is classed as cell-based, murine. As to the method:
as §1, §2, §3, §4, §5

Another series has as its system mammary gland. Conditions: bovine, in vivo. As to the method: Multiparous Holstein-Fresian dairy cattle cultured negative for infection and with individual quarter somatic cell counts less than 200,000 cells/mL are used. The lactating dairy cows receive a ration consisting of corn silage, alfalfa hay and concentrate which is formulated to provide recommended amounts of minerals and vitamins for a lactating dairy cow. Water is provided ad libitum.
The somatic cell count (SCC) of twelve normal glands are determined prior to treatment. Three groups of four quarters each receive an intramammary infusion of 10 mL to 60 mL of the respective vehicles identified in Example 1, 15% w/v poloxamer 407 NF (PLURONIC® F127), 50% w/v glycerol, 10% w/v triacetin (glyceryl triacetate) and the sPBS as a control. In vivo degree of irritation is measured by infusing a quarter of a mammary gland with the vehicle and measuring the SCC at 12, 36 and 60 hours after infusion. The data are expressed as the stimulation index which is calculated as the average experimental SCC divided by the control SCC.

Series [4] relates to Staphylococcus aureus mastitis (Newbould 305). Put plainly: Efficacy of lysostaphin formulated in vehicles as intramammary infusion against Staphylococcus aureus mastitis. In kind it is in vivo, bovine (dairy cows). From the text: This experiment examines the ability of various lysostaphin formulations to eliminate S. aureus infections in the bovine mammary gland and compares the formulations with the testing of lysostaphin in a peanut oil-gel matrix, similar to that used in the commercial product CEFA-LAK®, which is used to treat mastitis in lactating dairy cows.
Lysostaphin is formulated in three vehicles: 15% w/v poloxamer 407 NF, 50% w/v glycerol or 10% w/v triacetin. Lysostaphin is also formulated in a peanut oil-gel matrix. These formulations are infused into the bovine mammary gland and the ability of these combinations to exact a biological response, either by curing the infection or by clearing the mammary gland temporarily of S. aureus, are assessed.
Recombinant lysostaphin is suspended in 10.0 mL of peanut oil vehicle or dissolved in 60.0 mL of appropriate sterile vehicle (sPBS) at a concentration of 10.0 mg/mL or 1.67 mg/mL, respectively. Each of 15% poloxamer 407 NF (PLURONIC® ACID F127, a polyoxyethylene-polyoxypropylene derivative, BASF Corporation, Parsippany, N.J.); 50% glycerol (Sigma Chemical Co., St. Louis, Mo.); and 10% triacetin (glyceryl triacetate, Sigma Chemical Co., St. Louis, Mo.) are prepared in sterile phosphate buffered saline.
Staphylococcus aureus infections of the mammary gland provide an excellent model system for evaluating therapeutic efficacy of a variety of pharmaceutical and biological agents for many infectious diseases of mammals. Therefore, experimental infections are established with S. aureus (strain Newbould 305). All mammary glands to be inoculated are free of pathogens and have individual quarter somatic cell counts (SCC) less than 200,000 cells/mL of milk. Inoculum is prepared from a four-hour culture grown in trypticase soy broth and diluted. Inoculations are made by infusion of 1.0 mL diluted culture containing 90 colony forming units of S. aureus (Newbould 305) into the teat cistern of a milked-out mammary quarter. Quarters which fail to establish an infection after six days from initial inoculation are reinfected.
Prepared in PBS is 50% glycerol and the solution is then sterile filtered (0.45μ). Poloxamer 407 NF is mixed overnight and prepared similarly. A 10% triacetin solution is prepared aseptically in sterile PBS. Appropriate amounts of lysostaphin is added so the final concentration is 1.67 mg/mL. All preparations are in a total volume of 60.0 mL and made the day of the infusion. All solutions are sterile filtered through a 0.45μ filter.
Duration of treatment: 3 consecutive PM milkings
Quarters are randomly assigned to one of six treatment groups. All quarters are infused with the appropriate vehicle (60.0 mL) with or without lysostaphin over three consecutive PM milkings. […]

The subject of the next series is S. aureus. Put plainly: Potentiation of bacteriostatic activity of lysostaphin by vehicles (checkered analysis). The series is classed as cell-based, Staphylococcus aureus. An excerpt:
In order to identify the nontoxic formulations for mammalian use, toxicity is employed as a method to eliminate direct bactericidal effects on the S. aureus, as well as potential toxic effects on the target animal. Compounds are formulated with r-lysostaphin at concentrations below toxic effects and compared to the bacteriostatic activity of r-lysostaphin in a saline formulation. Some compounds potentiate r-lysostaphin bacteriostatic activity by as much as 300-1000 fold.
Several surfactants, detergents, oils, emollients and membrane solubilizers are chosen as representative of various classes of compounds which may affect protein activity. These vehicles are then evaluated for toxicity and potentiation of the bacteriostatic effects of r-lysostaphin on S. aureus according to the methods described in the foregoing examples. […] Secondly, the vehicles are subjected to the toxicity test on murine cells in vitro. Viable cells are evaluated by trypan blue exclusion and normalized to an untreated control. Thereafter, dairy cattle are infused through the teat canal with various concentrations of the vehicle to make a determination of the irritation potential after intramammary infusion as a measure of mammalian toxicity. Milk samples are collected after infusion of said vehicles and the somatic cell count is determined. The Stimulation Index equals the post-infusion SCC divided by the pre-infusion SCC. The vehicles showing minimal toxicity to S. aureus and mammalian cells in vitro and in vivo are subsequent candidates for evaluation in the in vivo potentiation trials.
Various vehicle combinations are tested in a standard checkered analysis which simultaneously varies the concentration of both parameters to examine the individual contribution of each. Vehicles are all compared to r-lysostaphin in a saline solution, i.e., the potentiation index. […] Glycerol and triacetin, while only potentiating the activity of r-lysostaphin 6-8 fold, is manifested by bactericidal effects (see above Table IV).

Another series concerns S. aureus mastitis. Nature of the series: Therapy of S. aureus bovine mastitis (background). Conditions: in vivo efficacy trials; in words.
The mark [5] stands for this setting: mouse, a20 cells, Relative Toxicity at 6 Hours.

As to `CCCCCCCC(=O)OCC(O)CO` (centres unmarked) [IMWITOR ®, Glyceryl monocaprylate], the viability at 6 h in series [1] (lb/62287 b-cell lymphoma, LB, 6 h, vehicle 0.01%, read-out: Relative Toxicity at 6 Hours) is 50 to 74%; in series [1] (lb/62287 b-cell lymphoma, LB, 6 h, vehicle 0.1%, read-out: Relative Toxicity at 6 Hours) it was 25 to 49%; in series [1] (lb/62287 b-cell lymphoma, LB, 6 h, vehicle 1.0%, read-out: Relative Toxicity at 6 Hours), 25 to 49%; in series [1] (setting [5]), 50 to 74%; in the series “in vitro”, 75 to 90%. Further, the viability at 72 h in series [1] (lb/62287 b-cell lymphoma, LB, 72 h, vehicle 0.01%, read-out: Relative Toxicity at 72 Hours) fell in the range of 50 to 74%; in series [1] (lb/62287 b-cell lymphoma, LB, 72 h, vehicle 0.1%, read-out: Relative Toxicity at 72 Hours), 0 to 24%; in series [1] (lb/62287 b-cell lymphoma, LB, 72 h, vehicle 1.0%, read-out: Relative Toxicity at 72 Hours), 0 to 24%. Further, in series [2], the “Relative Toxicity at 6 Hours” value is “-”. The “Relative Toxicity at 72 Hours” value in series [2] was “-”.
`CC(=O)OCC(COC(C)=O)OC(C)=O` [Triacetin, glyceryl triacetate]: the viability at 6 h in series [1] (lb/62287 b-cell lymphoma, Relative Toxicity at 6 Hours) lay within 75 to 90%; in series [1] (setting [5]), 75 to 90%. In series [1] (lb/62287 b-cell lymphoma, Relative Toxicity at 72 Hours), this molecule returned a viability at 72 h of 0 to 24%. Moreover, the “Relative Toxicity at 6 Hours” value in series [2] and in series [3] was “-” in each case. The “Relative Toxicity at 72 Hours” value in series [2] and in series [3] was “-” throughout. Moreover, the “Tolerability / irritation upon infusion” value in the series on mammary gland is reported as “A small amount of irritation to some animals”. For the same molecule, in series [4] (100 mg lysostaphin infusions on three consecutive days), the “% Cures” value was 25%. Moreover, the “Effect on potentiating the in vivo efficacy of lysostaphin” value in series [4] (in words) was “Neither glycerol nor triacetin (both have a cure rate of 25%) has any significant effect”. The Character of potentiation result in the series on S. aureus (in words (footnotes, text)) is on record as “Potentiates the bactericidal activity of rlysostaphin”. In the series with S. aureus (with r-lysostaphin), the “Vehicle Conc. w/Max. Potentiation (%)” value was determined as 10.0%.
Take lipopolysaccharide: the “Clearing of the mammary gland of S. aureus” value in the series on S. aureus mastitis was “able to clear the mammary gland temporarily of S. aureus”.

The record behind these values is patent US5342612A, “Compositions for the treatment of mammalian diseases” (priority 1991, dated 1994).
